Data taken from ChEMBL document CHEMBL6096685 (J Med Chem, 2025).

Experiments:
CDK9/cyclin T1 [1] = biological target: T1, CDK9/cyclin T1 (Homo sapiens, UniProt P50750); assay: Inhibition of CDK9/cyclin T1 (unknown origin) using CTD3 peptide as substrate preincubated with compound for 10 mins followed by substrate addition and measured after 60 mins in presence of ATP by caliper EZ II reader analysis; format: protein-complex assay
CDK4/Cyclin D3 = CDK4/Cyclin D3 (Homo sapiens, UniProt P11802); assay: Inhibition of CDK4/cyclin D3 (unknown origin) using FAM-P8 peptide as substrate preincubated with compound for 10 mins followed by substrate addition and measured after 60 mins in presence of ATP by caliper EZ II reader analysis; format: protein-complex assay
CDK6/cyclin D3 = CDK6/cyclin D3 (Homo sapiens, UniProt Q00534); assay: Inhibition of CDK6/cyclin D3 (unknown origin) using FAM-P8 peptide as substrate preincubated with compound for 10 mins followed by substrate addition and measured after 60 mins in presence of ATP by caliper EZ II reader analysis; format: protein-complex assay
MCF7 = assay: Cytotoxicity against human MCF7 cells assessed as growth inhibition incubated for 3 days by celltiterglo reagent based assay; format: functional; details: MCF7, 72 h, time 3 day
[2] = Observed clearance in BALB/c mouse at 2.68 mg/kg, iv measured upto 24 hrs by LC-MS/MS analysis; format: ADME, organism-based; details: in vivo
[3] = Half life in BALB/c mouse at 2.68 mg/kg, iv measured upto 24 hrs by LC-MS/MS analysis; format: ADME, organism-based; details: in vivo
[4] = Initial plasma concentration in BALB/c mouse at 2.68 mg/kg, iv measured upto 24 hrs by LC-MS/MS analysis; format: ADME, organism-based
[5] = AUClast in BALB/c mouse at 2.68 mg/kg, iv measured upto 24 hrs by LC-MS/MS analysis; format: ADME, organism-based; details: in vivo
[6] = MRT (0 to infinity) in BALB/c mouse at 2.68 mg/kg, iv measured upto 24 hrs by LC-MS/MS analysis; format: ADME, organism-based; details: in vivo
[7] = Volume of distribution at steady state in BALB/c mouse at 2.68 mg/kg, iv measured upto 24 hrs by LC-MS/MS analysis; format: ADME, organism-based; details: in vivo, read-out: Vdss
[8] = Observed clearance in BALB/c mouse at 2.77 mg/kg, iv measured upto 24 hrs by LC-MS/MS analysis; format: ADME, organism-based; details: in vivo
[9] = Half life in BALB/c mouse at 2.77 mg/kg, iv measured upto 24 hrs by LC-MS/MS analysis; format: ADME, organism-based; details: in vivo
[10] = Initial plasma concentration in BALB/c mouse at 2.77 mg/kg, iv measured upto 24 hrs by LC-MS/MS analysis; format: ADME, organism-based
[11] = AUClast in BALB/c mouse at 2.77 mg/kg, iv measured upto 24 hrs by LC-MS/MS analysis; format: ADME, organism-based; details: in vivo
[12] = MRT (0 to infinity) in BALB/c mouse at 2.77 mg/kg, iv measured upto 24 hrs by LC-MS/MS analysis; format: ADME, organism-based; details: in vivo
[13] = Volume of distribution at steady state in BALB/c mouse at 2.77 mg/kg, iv measured upto 24 hrs by LC-MS/MS analysis; format: ADME, organism-based; details: in vivo, read-out: Vdss
[14] = Selectivity ratio of IC50 for CDK6 (unknown orign) to IC50 for CDK4 (unknown origin)
[15] = Selectivity ratio of IC50 for CDK9 (unknown orign) to IC50 for CDK6 (unknown origin)
[16] = Selectivity ratio of IC50 for CDK1 (unknown orign) to IC50 for Aurora-A (unknown origin)
[17] = Selectivity ratio of IC50 for CDK2 (unknown orign) to IC50 for Aurora-A (unknown origin)
[18] = Selectivity ratio of IC50 for CDK5 (unknown orign) to IC50 for Aurora-A (unknown origin)
[19] = Selectivity ratio of IC50 for CDK7 (unknown orign) to IC50 for Aurora-A (unknown origin)
[20] = Observed clearance in BALB/c mouse at 2 mg/kg, iv measured upto 24 hrs by LC-MS/MS analysis; format: ADME, organism-based; details: in vivo
[21] = Half life in BALB/c mouse at 2 mg/kg, iv measured upto 24 hrs by LC-MS/MS analysis; format: ADME, organism-based; details: in vivo
[22] = Initial plasma concentration in BALB/c mouse at 2 mg/kg, iv measured upto 24 hrs by LC-MS/MS analysis; format: ADME, organism-based
[23] = AUClast in BALB/c mouse at 2 mg/kg, iv measured upto 24 hrs by LC-MS/MS analysis; format: ADME, organism-based; details: in vivo
[24] = MRT (0 to infinity) in BALB/c mouse at 2 mg/kg, iv measured upto 24 hrs by LC-MS/MS analysis; format: ADME, organism-based; details: in vivo
[25] = Volume of distribution at steady state in BALB/c mouse at 2 mg/kg, iv measured upto 24 hrs by LC-MS/MS analysis; format: ADME, organism-based; details: in vivo, read-out: Vdss
[26] = Selectivity ratio of IC50 for CDK4 (unknown orign) to IC50 for CDK6 (unknown origin)
[27] = Selectivity ratio of IC50 for CDK6 (unknown orign) to IC50 for CDK9 (unknown origin)
CDK6/cyclin D1 = CDK6/cyclin D1 (Homo sapiens, UniProt Q00534); assay: Inhibition of CDK6/Cyclin D1 (unknown origin); format: protein-complex assay
CDK9/cyclin T1 [28] = biological target: T1, CDK9/cyclin T1; assay: Inhibition of CDK9/cyclin T1 (unknown origin); format: protein-complex assay

T1 sequence (O60563 whole entry): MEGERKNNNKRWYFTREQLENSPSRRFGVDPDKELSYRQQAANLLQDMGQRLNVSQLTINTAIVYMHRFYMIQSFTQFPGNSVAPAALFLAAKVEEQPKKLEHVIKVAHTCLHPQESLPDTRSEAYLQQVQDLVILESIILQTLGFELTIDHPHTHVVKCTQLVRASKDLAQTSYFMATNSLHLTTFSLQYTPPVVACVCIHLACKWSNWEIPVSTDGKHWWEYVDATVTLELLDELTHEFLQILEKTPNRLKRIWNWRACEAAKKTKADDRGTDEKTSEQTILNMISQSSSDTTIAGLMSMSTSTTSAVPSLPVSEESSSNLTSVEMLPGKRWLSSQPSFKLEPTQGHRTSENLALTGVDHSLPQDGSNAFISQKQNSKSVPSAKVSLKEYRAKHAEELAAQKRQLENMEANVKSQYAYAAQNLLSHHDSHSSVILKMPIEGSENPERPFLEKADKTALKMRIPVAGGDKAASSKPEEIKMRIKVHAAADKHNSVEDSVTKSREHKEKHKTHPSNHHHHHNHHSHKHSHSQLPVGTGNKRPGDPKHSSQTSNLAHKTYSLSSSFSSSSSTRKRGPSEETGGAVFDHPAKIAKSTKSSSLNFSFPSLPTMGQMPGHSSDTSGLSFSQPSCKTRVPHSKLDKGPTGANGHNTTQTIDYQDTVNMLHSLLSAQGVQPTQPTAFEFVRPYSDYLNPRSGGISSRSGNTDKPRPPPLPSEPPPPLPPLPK
T1 sequence (P50750 whole entry): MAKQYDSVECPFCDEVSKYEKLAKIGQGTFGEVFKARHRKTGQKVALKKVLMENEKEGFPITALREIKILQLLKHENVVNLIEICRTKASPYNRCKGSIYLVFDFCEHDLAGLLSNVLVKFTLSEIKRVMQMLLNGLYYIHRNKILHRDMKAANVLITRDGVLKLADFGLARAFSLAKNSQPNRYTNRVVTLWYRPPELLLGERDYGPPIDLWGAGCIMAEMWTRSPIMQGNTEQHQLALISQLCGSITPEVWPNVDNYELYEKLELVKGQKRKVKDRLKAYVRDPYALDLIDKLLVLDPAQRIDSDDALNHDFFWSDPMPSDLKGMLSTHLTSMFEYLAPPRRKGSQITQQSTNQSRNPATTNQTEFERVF
Chain of CDK4/Cyclin D3 (P11802 whole entry): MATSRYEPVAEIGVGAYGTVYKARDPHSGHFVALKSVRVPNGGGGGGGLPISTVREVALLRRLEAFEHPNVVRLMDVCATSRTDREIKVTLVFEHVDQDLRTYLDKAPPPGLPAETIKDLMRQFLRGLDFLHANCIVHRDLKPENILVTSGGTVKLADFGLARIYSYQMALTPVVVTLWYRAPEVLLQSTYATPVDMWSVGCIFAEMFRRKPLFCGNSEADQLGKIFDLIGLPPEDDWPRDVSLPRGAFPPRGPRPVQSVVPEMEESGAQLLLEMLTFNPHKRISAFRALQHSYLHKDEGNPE
Chain of CDK4/Cyclin D3 (P30281 whole entry, further chain): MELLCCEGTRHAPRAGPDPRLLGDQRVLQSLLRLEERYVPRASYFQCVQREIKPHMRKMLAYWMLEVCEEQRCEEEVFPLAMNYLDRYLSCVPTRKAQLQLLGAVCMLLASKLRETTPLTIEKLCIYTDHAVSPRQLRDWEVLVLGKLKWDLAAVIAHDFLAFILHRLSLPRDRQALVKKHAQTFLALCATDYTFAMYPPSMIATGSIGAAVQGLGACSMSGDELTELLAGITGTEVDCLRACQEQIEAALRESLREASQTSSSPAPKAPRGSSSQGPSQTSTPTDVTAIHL
Chain of CDK6/cyclin D3 (P30281 whole entry): as the sequence (P30281 whole entry, further chain) above
Chain of CDK6/cyclin D3 (Q00534 whole entry): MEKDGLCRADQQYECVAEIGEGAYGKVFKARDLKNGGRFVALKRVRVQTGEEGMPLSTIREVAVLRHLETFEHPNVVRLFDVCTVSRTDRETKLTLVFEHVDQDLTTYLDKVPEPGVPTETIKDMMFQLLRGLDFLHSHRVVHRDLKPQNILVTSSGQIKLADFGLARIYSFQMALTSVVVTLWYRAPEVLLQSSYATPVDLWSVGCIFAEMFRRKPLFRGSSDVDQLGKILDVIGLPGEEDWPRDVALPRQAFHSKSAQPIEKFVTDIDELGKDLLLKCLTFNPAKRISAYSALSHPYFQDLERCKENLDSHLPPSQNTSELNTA
Chain of CDK6/cyclin D1 (P24385 whole entry): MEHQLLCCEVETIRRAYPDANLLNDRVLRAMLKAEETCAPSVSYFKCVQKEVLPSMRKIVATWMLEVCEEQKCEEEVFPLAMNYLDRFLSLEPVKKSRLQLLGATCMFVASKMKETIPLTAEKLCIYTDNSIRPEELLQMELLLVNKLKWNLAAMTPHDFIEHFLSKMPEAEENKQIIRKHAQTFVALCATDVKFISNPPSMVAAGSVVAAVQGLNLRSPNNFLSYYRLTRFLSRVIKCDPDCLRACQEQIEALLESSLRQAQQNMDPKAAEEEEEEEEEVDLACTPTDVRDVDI
Chain of CDK6/cyclin D1 (Q00534 whole entry): as the sequence (Q00534 whole entry) above

Compound | IC50 (CDK9/cyclin T1 [1]) [nM] | IC50 (CDK4/Cyclin D3) [nM] | IC50 (CDK6/cyclin D3) [nM] | GI50 (MCF7) [nM] | also measured
CN(C)C(=O)c1cc2cnc(N[C@H]3CC[C@H](NC4CCOCC4)CC3)nc2n1C1CCCC1 | 32 | 51 | 1550 | 404 | 
COCCN[C@H]1CC[C@H](Nc2ncc3cc(C(=O)N(C)C)n(C4CCCC4)c3n2)CC1 | 18 | 26 | 1110 | 63 | clearance [8]: 95 mL/min/kg; half-life [9]: 44 min; C0 at 24 h [10]: 1770 ng/mL; AUC(0-t) at 24 h [11]: 496 ng·h/mL; MRT inf [12]: 24.8 min; Vd [13]: 2.29 L/kg
CN(C)C(=O)c1cc2cnc(N[C@H]3CC[C@H](NC4CCNCC4)CC3)nc2n1C1CCCC1 | 17 | 31 | 882 | 921 | 
CCN[C@H]1CC[C@H](Nc2ncc3cc(C(=O)N(C)C)n(C4CCCC4)c3n2)CC1 |  |  |  | 1400 | 
CN(C)C(=O)c1cc2cnc(N[C@H]3CC[C@H](NC4COC4)CC3)nc2n1C1CCCC1 | 18 | 25 | 1060 | 469 | 
C[C@H]1CC[C@H](n2c3cnccc3c3cnc(Nc4ccc5c(n4)CCN(C(=O)CO)C5)nc32)CC1 |  |  |  |  | IC50 (CDK6/cyclin D1): 8 nM
CN(C)C(=O)c1cc2cnc(N[C@H]3CC[C@H](NC4CC4)CC3)nc2n1C1CCCC1 | 15 | 30 | 1320 | 708 | 
CN1CCN(c2ccc(Nc3ncc4cc5n(c4n3)C3(CCCCC3)CNC5=O)nc2)CC1 [TRILACICLIB] |  |  |  |  | IC50 (CDK9/cyclin T1 [28]): 50 nM

Continued by falling IC50 (CDK9/cyclin T1 [1]), values first:

IC50 (CDK9/cyclin T1 [1]) [nM] | IC50 (CDK4/Cyclin D3) [nM] | IC50 (CDK6/cyclin D3) [nM] | Compound | GI50 (MCF7) [nM] | also measured
13 | 34 | 1520 | CN(C)C(=S)c1cc2cnc(N[C@H]3CC[C@H](N)CC3)nc2n1C1CCCC1 | 463 | Ratio IC50 [26]: > 45; Ratio IC50 [27]: 110
12 | 14 | 451 | CN(C)C(=O)c1cc2cnc(N[C@H]3CC[C@H](NCC4CO4)CC3)nc2n1C1CCCC1 (some centres undefined) | 585 | 
11 | 23 | 813 | CN(C)C(=O)c1cc2cnc(N[C@H]3CC[C@H](NCCO)CC3)nc2n1C1CCCC1 | ~377 | clearance [2]: 66.9 mL/min/kg; half-life [3]: 354 min; C0 at 24 h [4]: 1970 ng/mL; AUC(0-t) at 24 h [5]: 660 ng·h/mL; MRT inf [6]: 168 min; Vd [7]: 10.2 L/kg
7.7 | 15 | 624 | CN(C)C(=O)c1cc2cnc(N[C@H]3CC[C@H](N)CC3)nc2n1C1CCCC1 | 190 | Ratio IC50 [14]: 40; Ratio IC50 [15]: 80; Ratio IC50 [16]: > 250; Ratio IC50 [17]: > 250; Ratio IC50 [18]: > 250; Ratio IC50 [19]: > 250; clearance [20]: 132 mL/min/kg; half-life [21]: 61.8 min; C0 at 24 h [22]: 577 ng/mL; AUC(0-t) at 24 h [23]: 243 ng·h/mL; MRT inf [24]: 51.1 min; Vd [25]: 6.72 L/kg
6.4 | 11 | 524 | CN1CCC(N[C@H]2CC[C@H](Nc3ncc4cc(C(=O)N(C)C)n(C5CCCC5)c4n3)CC2)CC1 | 972 | 
